ChEMBL document CHEMBL5724914, “Linking interpersonal differences in gut microbiota composition and drug biotransformation activity” (2024)

Tests used:
[1] = (§1) The drug is tested on Z-028 corresponding to mouse gut metagenome with ENA study accession number: PRJEB37062 and ENA sample accession number: ERS12561827 for biotransformation under anaerobic condition. The drug concentrations were measured over 9 timepoints collected between 0 and 24 hours of incubation by liquid-chromatography-coupled mass spectrometry (LC–MS); settings: 2 µM
[2] = as §1, with “Z-023” for “Z-028”, “to” for “to mouse gut”, “ERS12561822” for “ERS12561827”; settings: 2 µM
[3] = as §1, with “Z-021” for “Z-028”, “to” for “to mouse gut”, “ERS12561820” for “ERS12561827”; settings: 2 µM
[4] = as §1, with “Z-018” for “Z-028”, “pig” for “mouse”, “ERS12561817” for “ERS12561827”; settings: 2 µM
[5] = as §1, with “Z-013” for “Z-028”, “rabbit” for “mouse”, “ERS12561813” for “ERS12561827”; settings: 2 µM
[6] = as §1, with “Z-010” for “Z-028”, “to” for “to mouse gut”, “ERS12561810” for “ERS12561827”; settings: 2 µM
[7] = as §1, with “Z-006” for “Z-028”, “ERS12561806” for “ERS12561827”; settings: 2 µM
[8] = as §1, with “Z-005” for “Z-028”, “to” for “to mouse gut”, “ERS12561805” for “ERS12561827”; settings: 2 µM
[9] = as §1, with “WLS-370” for “Z-028”, “human” for “mouse”, “ERS12561793” for “ERS12561827”; settings: 2 µM
[10] = as §1, with “WLS-170” for “Z-028”, “human” for “mouse”, “ERS12561762” for “ERS12561827”; settings: 2 µM
[11] = as §1, with “WLS-098” for “Z-028”, “human” for “mouse”, “ERS12561754” for “ERS12561827”; settings: 2 µM
[12] = as §1, with “WLS-086” for “Z-028”, “human” for “mouse”, “ERS12561752” for “ERS12561827”; settings: 2 µM
[13] = as §1, with “WLS-082” for “Z-028”, “human” for “mouse”, “ERS12561751” for “ERS12561827”; settings: 2 µM
[14] = as §1, with “WLS-010” for “Z-028”, “human” for “mouse”, “ERS12561743” for “ERS12561827”; settings: 2 µM
[15] = human gut metagenome, 24 h, 2 µM
[16] = human gut metagenome, 24 h, 2 µM; remark: listed apart in the source
[17] = human gut metagenome, 24 h, 2 µM; remark: listed apart in the source
[18] = human gut metagenome, 24 h, 2 µM; remark: listed apart in the source
[19] = human gut metagenome, 24 h, 2 µM; remark: listed apart in the source
[20] = human gut metagenome, 24 h, 2 µM; remark: listed apart in the source
Note: call rule not given here.

| Compound | Bacterial Biotransformation [1] | Bacterial Biotransformation [2] | Bacterial Biotransformation [3] | Bacterial Biotransformation [4] | Bacterial Biotransformation [5] | Bacterial Biotransformation [6] | Bacterial Biotransformation [7] | Bacterial Biotransformation [8] | Bacterial Biotransformation [9] | Bacterial Biotransformation [10] | Bacterial Biotransformation [11] | Bacterial Biotransformation [12] | Bacterial Biotransformation [13] | Bacterial Biotransformation [14] | Bacterial Biotransformation [15] | Bacterial Biotransformation [16] | Bacterial Biotransformation [17] | Bacterial Biotransformation [18] | Bacterial Biotransformation [19] | Bacterial Biotransformation [20] |
| --- | --- | --- | --- | --- | --- | --- | --- | --- | --- | --- | --- | --- | --- | --- | --- | --- | --- | --- | --- | --- |
| COc1ccccc1OCCNCC(O)COc1cccc2[nH]c3ccccc3c12 (stereo not given) [CARVEDILOL] | Compound NOT metabolized | Compound metabolized | Compound NOT metabolized | Compound NOT metabolized | Compound NOT metabolized | Compound metabolized | Compound NOT metabolized | Compound NOT metabolized | Compound NOT metabolized | Compound metabolized | Compound metabolized | Compound metabolized | Compound metabolized | Compound metabolized | Compound metabolized | Compound metabolized | Compound metabolized | Compound metabolized | Compound NOT metabolized | Compound metabolized |
| CC(C)(C)NCC(O)c1cc(Cl)c(N)c(Cl)c1 (stereo not given) [CLENBUTEROL] | Compound NOT metabolized | Compound NOT metabolized | Compound NOT metabolized | Compound NOT metabolized | Compound NOT metabolized | Compound NOT metabolized | Compound NOT metabolized | Compound NOT metabolized | Compound NOT metabolized | Compound NOT metabolized | Compound NOT metabolized | Compound NOT metabolized | Compound NOT metabolized | Compound NOT metabolized | Compound NOT metabolized | Compound NOT metabolized | Compound NOT metabolized | Compound NOT metabolized | Compound NOT metabolized | Compound NOT metabolized |
| C[N+]12CCC(CC1)C(OC(=O)C(O)(c1ccccc1)c1ccccc1)C2.[Br-] (stereo not given) [CLIDINIUM BROMIDE] | Compound NOT metabolized | Compound metabolized | Compound NOT metabolized | Compound metabolized | Compound NOT metabolized | Compound metabolized | Compound NOT metabolized | Compound NOT metabolized | Compound metabolized | Compound metabolized | Compound NOT metabolized | Compound metabolized | Compound NOT metabolized | Compound NOT metabolized | Compound NOT metabolized | Compound metabolized | Compound NOT metabolized | Compound NOT metabolized | Compound NOT metabolized | Compound NOT metabolized |
| Clc1cccc(Cl)c1N=C1NCCN1 [CLONIDINE] | Compound NOT metabolized | Compound NOT metabolized | Compound NOT metabolized | Compound metabolized | Compound NOT metabolized | Compound metabolized | Compound NOT metabolized | Compound NOT metabolized | Compound NOT metabolized | Compound metabolized | Compound metabolized | Compound metabolized | Compound NOT metabolized | Compound metabolized | Compound metabolized | Compound metabolized | Compound NOT metabolized | Compound NOT metabolized | Compound NOT metabolized | Compound metabolized |
| COC(=O)[C@H](c1ccccc1Cl)N1CCc2sccc2C1.O=S(=O)(O)O [CLOPIDOGREL BISULFATE] | Compound NOT metabolized | Compound metabolized | Compound metabolized | Compound metabolized | Compound metabolized | Compound metabolized | Compound metabolized | Compound metabolized | Compound metabolized | Compound metabolized | Compound metabolized | Compound metabolized | Compound metabolized | Compound metabolized | Compound metabolized | Compound metabolized | Compound metabolized | Compound metabolized | Compound metabolized | Compound metabolized |
| O=P1(N(CCCl)CCCl)NCCCO1 (stereo not given) [CYCLOPHOSPHAMIDE ANHYDROUS] | Compound NOT metabolized | Compound NOT metabolized | Compound NOT metabolized | Compound NOT metabolized | Compound NOT metabolized | Compound NOT metabolized | Compound NOT metabolized | Compound NOT metabolized | Compound NOT metabolized | Compound metabolized | Compound metabolized | Compound metabolized | Compound metabolized | Compound NOT metabolized | Compound metabolized | Compound metabolized | Compound NOT metabolized | Compound metabolized | Compound NOT metabolized | Compound metabolized |
| Br.COc1ccc2c(c1)[C@]13CCCC[C@@H]1[C@H](C2)N(C)CC3.O [DEXTROMETHORPHAN HYDROBROMIDE] | Compound NOT metabolized | Compound metabolized | Compound metabolized | Compound metabolized | Compound NOT metabolized | Compound metabolized | Compound NOT metabolized | Compound NOT metabolized | Compound metabolized | Compound NOT metabolized | Compound metabolized | Compound metabolized | Compound NOT metabolized | Compound metabolized | Compound NOT metabolized | Compound metabolized | Compound metabolized | Compound metabolized | Compound NOT metabolized | Compound NOT metabolized |
| CC(=O)Nc1ccc(OC(C)=O)cc1 [DIACETAMATE] | Compound metabolized | Compound metabolized | Compound metabolized | Compound metabolized | Compound metabolized | Compound metabolized | Compound metabolized | Compound metabolized | Compound metabolized | Compound metabolized | Compound metabolized | Compound metabolized | Compound metabolized | Compound metabolized | Compound metabolized | Compound metabolized | Compound metabolized | Compound metabolized | Compound metabolized | Compound metabolized |
